{"source": "patent US20220133894A1", "about": "“BISPHOSPHONATE-LINKED COMPOUNDS” (OREGON HEALTH & SCIENCE UNIVERSITY, priority 2019, published 2022)", "key": {"PC3-M-luc cells": {"test_system": "PC3-M-luc cells", "experiment": "PCa orthotopic implantation, primary tumor growth and lung metastasis", "assay_type": "in vivo, mice", "details": "orthotopic PC3-M-luc, 150 mg/kg KBU2046 daily", "procedure": "To assess the efficacy of a spectrum of docetaxel concentrations, mice received orthotopic implants of PC3-M-luc cells, were treated with 0, 10 or 20 mg/kg docetaxel, and tumor growth monitored with weekly IVIS imaging. […] Subsequently, mice with orthotopic implants of PC3-M-luc cells were treated with docetaxel, KBU2046, docetaxel+KBU2046 or vehicle, as denoted, and effects on primary tumor growth and lung metastasis quantified (FIGS. 2A, 2B, and 2C).\nCohorts of N=10 mice bearing orthotopic implants of PC3-M-luc cells were treated daily with 150 mg/kg KUB2046 (46), intraperitoneal docetaxel 7.5 mg/kg weekly (doc), the combination (doc+46), or with oral and intraperitoneal vehicle (CO). KBU2046 treatment began 3 days before implantation and docetaxel began 1 week after. (A) Lung metastasis measured by qPCR for human Alu sequences, expressed as percent control (B) Weekly IVIS imaging of tumor. (C) Tumor weight. * denotes P<0.05 for differences between cohorts denoted by bars. All data are mean±SEM.\nPCa orthotopic implantation: Orthotopic implantation of 2.5×10^5 PC3M-luc into 7-8 week old male athymic mice was performed as previously described by us (5, 52 Xu et al., above; and Pavese et al., J Vis Exp, e50873 (2013)). Daily oral gavage treatment with 150 mg/kg KBU2046 or was initiated 3 days prior to implantation and continued throughout the duration of the study. Weekly IP injections with 7.5 mg/kg docetaxel or control were administered beginning one week post implantation. Primary tumor out growth was monitored via weekly IVIS imaging. At the completion of the study the primary tumor was resected and weighed and lungs were resected and snap frozen. To determine the human PCa metastatic burden in each mouse lung, the snap frozen tissue was pulverized, DNA isolated and Alu-sequencing performed as previously described (19). […] (SEQ ID NO: 3). The 144RH probe was labeled with a 5′ fluorescent reporter (6-FAM) and a 3′ fluorescent quencher (Black Hole Quencher). The relative content of human DNA was calculated with using the comparative CT method, CT (sample)-CT(negative control). All samples were run in triplicate and were repeated."}, "RAW 267.4 cells": {"test_system": "RAW 267.4 cells", "experiment": "ApoTox-Glo Triplex assay in RANKL treated osteoclast cells", "assay_type": "cell-based, mouse", "details": "72 hours after treatment", "procedure": "FIG. 5 represents the improved efficacy seen with KBU2046 combined with ZA. In FIG. 5A bone degradation was tested using osteo assays performed as in FIG. 4D. Cells were treated with KBU2046 (46), ZA at 2, 10 or 20 μM, with the indicated combinations, or vehicle (control; CO). Data are the mean±SEM (N=3 replicates); * denotes P<0.05 compared to control, or between conditions denoted by bars. FIG. 5B provides representative photomicrographs of osteo assay wells. Black color denotes presence of bone matrix; RL: RANKL. (FIGS. 5C-5E) Cell viability, cytotoxicity and apoptosis. RAW 267.4 cells were treated with RANKL, at day 4 they were treated with KBU2046, ZA at 1 or 10 μM (ZA1 or ZA10), the indicated combination, or vehicle (CO) and Triplex assay performed 24, 48 or 72 hours later, per Methods. Data are the mean±SEM (N=4 replicates); ¥, #, * denotes P<0.05 compared to control. (FIGS. 5F-5H) In vivo efficacy. Four cohorts of mice, N=15/cohort, were given intracardiac injections of PC3-luc cells, yielding the following successful injections: N=12 control, N=12 ZA, N=13 KBU2046 and N=13 ZA+KBU2046. Treatment was oral 150 mg KBU2046/kg daily (starting 3 days before IC injection), intraperitoneal ZA 100 μg/kg weekly (starting 1 week before IC injection), with oral and intraperitoneal vehicle controls given as indicated. […] (FIGS. 5C and 5D) Quantification of bone lesions. The macroscopic lesions in the jaw were quantified by direct measurement from CT images, and expressed as the mean±SEM percent of control. Bone density of femurs was measured from CT images, and expressed as the mean±SEM percent of control. * denotes P<0.05 compared to control, and for groups indicated by bars.\nWe next examined the effect of ZA and KBU2046 on osteoclast cell viability, apoptosis and cytotoxicity. RAW 267.4 cells were treated with RANKL for the duration of the experiment, at day 4 they were then treated with ZA, KBU2046, the combination, or vehicle (for controls), and effect on cell viability, apoptosis and cytotoxicity measured by Triplex assay at 24, 48 and 72 hours after treatment (FIGS. 5C-5E). […]"}}}
{"smiles": "O=C1c2ccccc2OCC1c1ccc(F)cc1", "note": "(centres unmarked) [KBU2046, 3-(4-fluorophenyl)chroman-4-one]", "values": [{"measurement": "decrease of tumor weight compared to control", "setting": "PC3-M-luc cells; docetaxel 7.5 mg/kg weekly", "result": "no significant effect"}, {"measurement": "decrease of lung metastasis compared to control (human Alu qPCR)", "setting": "PC3-M-luc cells; docetaxel 7.5 mg/kg weekly intraperitoneal", "result": 20, "unit": "%"}, {"measurement": "cell viability", "setting": "RAW 267.4 cells; compared to control", "result": "significant increases"}, {"measurement": "cytotoxicity", "setting": "RAW 267.4 cells; compared to control", "result": "decreases"}, {"measurement": "apoptosis", "setting": "RAW 267.4 cells; compared to controls", "result": "significant increase"}]}
